Earlier results in patent US8828453B2, “Herbal-based compositions for alleviating symptoms associated with autism” (priority 2010, dated 2014).

Tested on: newborn murine brain

Q: For `CCCCC/C=C\C/C=C\C/C=C\C/C=C\CCCC(=O)NCCO` [anandamide], which “protection against excitotoxic damage” value is on record?
A: protected the newborn murine brain against excitotoxic damage
